Legend:
Type in all cases: in vivo
[1] = system: yellow fever mosquito (Aedes aegypti); experiment: whole plant or invertebrate; conditions: 48 h, larval mortality visually assessed after 2 days, read-out: mortality in comparison with untreated controls
Description: Example B1: Action on Yellow Fever Mosquito (Aedes aegypti)
For evaluating control of yellow fever mosquito (Aedes aegypti) the test unit consisted of 96-well-microtiter plates containing 200 μl of tap water per well and 5-15 freshly hatched A. aegypti larvae.
The active compounds were formulated using a solution containing 75% (v/v) water and 25% (v/v) DMSO. Different concentrations of formulated compounds or mixtures were sprayed onto the insect diet at 2.5 μl, using a custom built micro atomizer, at two replications.
After application, microtiter plates were incubated at 28+1° C., 80+5% RH for 2 days. Larval mortality was then visually assessed.

[2] = system: Silverleaf Whitefly (Bemisia argentifolii) (Adults); experiment: Action on silverleaf whitefly adults, sprayed cotton plants; conditions: 72 h, 3 days after treatment, read-out: mortality in comparison with untreated controls
Description: Example B4: Action on Silverleaf Whitefly (Bemisia argentifolii) (Adults)
(§1) The active compounds were formulated by a Tecan liquid handler in 100% cyclohexanone as a 10,000 ppm solution supplied in tubes. The 10,000 ppm solution was serially diluted in 100% cyclohexanone to make interim solutions. These served as stock solutions for which final dilutions were made by the Tecan in 50% acetone:50% water (v/v) into 5 or 10 ml glass vials. A nonionic surfactant (Kinetic®) was included in the solution at a volume of 0.01% (v/v). The vials were then inserted into an automated electrostatic sprayer equipped with an atomizing nozzle for application to plants/insects.
Cotton plants at the cotyledon stage (one plant per pot) were sprayed by an automated electrostatic plant sprayer equipped with an atomizing spray nozzle. The plants were dried in the sprayer fume hood and then removed from the sprayer. Each pot was placed into a plastic cup and about 10 to 12 whitefly adults (approximately 3-5 days old) were introduced. The insects were collected using an aspirator and a nontoxic Tygon® tubing connected to a barrier pipette tip. The tip, containing the collected insects, was then gently inserted into the soil containing the treated plant, allowing insects to crawl out of the tip to reach the foliage for feeding. Cups were covered with a reusable screened lid. Test plants were maintained in a growth room at about 25° C. and about 20-40% relative humidity for 3 days, avoiding direct exposure to fluorescent light (24 hour photoperiod) to prevent trapping of heat inside the cup. Mortality was assessed 3 days after treatment, compared to untreated control plants.

[3] = system: Mediterranean fruitfly (Ceratitis capitata); experiment: Action on Mediterranean fruitfly, eggs on insect diet in microtiter plates; conditions: 120 h, egg and larval mortality visually assessed after 5 days, read-out: mortality in comparison with untreated controls
Description: Example B5: Action on Mediterranean Fruitfly (Ceratitis capitata)
For evaluating control of Mediterranean fruitfly (Ceratitis capitata) the test unit consisted of microtiter plates containing an insect diet and 50-80 C. capitata eggs.
(§2) The compounds were formulated using a solution containing 75% v/v water and 25% v/v DMSO. Different concentrations of formulated compounds were sprayed onto the insect diet at 5 μl, using a custom built micro atomizer, at two replications.
After application, microtiter plates were incubated at about […] and about 80+5% relative humidity for 5 days. Egg and larval mortality was then visually assessed.

[4] = system: tobacco budworm (Heliothis virescens); experiment: Action on tobacco budworm, eggs on insect diet in 96-well microtiter plates; conditions: 120 h, egg and larval mortality visually assessed after 5 days, read-out: mortality in comparison with untreated controls
Description: Example B6: Action on Tobacco Budworm (Heliothis virescens)
For evaluating control of tobacco budworm (Heliothis virescens) the test unit consisted of 96-well-microtiter plates containing an insect diet and 15-25 H. virescens eggs.
The compounds were formulated using a solution containing 75% v/v water and 25% v/v DMSO. Different concentrations of formulated compounds were sprayed onto the insect diet at 10 μl, using a custom built micro atomizer, at two replications.
After application, microtiter plates were incubated at about 28±1° C. and about 80±5% relative humidity for 5 days. Egg and larval mortality was then visually assessed.

[5] = system: Southern Armyworm (Spodoptera eridania), 2nd instar larvae; experiment: Action on southern armyworm 2nd instar larvae, sprayed lima bean plants; conditions: 96 h, 4 days after treatment, read-out: mortality in comparison with untreated controls
Description: Example B10: Action on Southern Armyworm (Spodoptera eridania), 2nd Instar Larvae
as §1, with “into 10” for “into 5”, “or 20” for “or 10”
Lima bean plants (variety Sieva) were grown 2 plants to a pot and selected for treatment at the 1st true leaf stage. Test solutions were sprayed onto the foliage by an automated electrostatic plant sprayer equipped with an atomizing spray nozzle. The plants were dried in the sprayer fume hood and then removed from the sprayer. Each pot was placed into perforated plastic bags with a zip closure. About 10 to 11 armyworm larvae were placed into the bag and the bags zipped closed. Test plants were maintained in a growth room at about 25° C. and about 20-40% relative humidity for 4 days, avoiding direct exposure to fluorescent light (24 hour photoperiod) to prevent trapping of heat inside the bags. Mortality and reduced feeding were assessed 4 days after treatment, compared to untreated control plants.

[6] = system: boll weevil (Anthonomus grandis); experiment: Action on boll weevil, eggs on insect diet in 96-well microtiter plates; conditions: 120 h, 800 ppm, egg and larval mortality visually assessed after 5 days, read-out: mortality in comparison with untreated controls
Description: Example B3: Action on Boll Weevil (Anthonomus grandis)
For evaluating control of boll weevil (Anthonomus grandis) the test unit consisted of 96-well-microtiter plates containing an insect diet and 5-10 A. grandis eggs.
as §2
After application, microtiter plates were incubated at about 25±1° C. and about 75±5% relative humidity for 5 days. Egg and larval mortality was then visually assessed.

[7] = system: Diamond Back Moth (Plutella xylostella); experiment: Action on diamond back moth, dipped cabbage leaves; conditions: 3rd instar larvae, 72 hours after treatment, read-out: mortality in comparison with untreated controls
Description: Example B9: Action on Diamond Back Moth (Plutella xylostella)
The active compound is dissolved at the desired concentration in a mixture of 1:1 (vol:vol) distilled water:acetone. Surfactant (Kinetic® HV) is added at a rate of 0.01% (vol/vol). The test solution is prepared at the day of use.
Leaves of cabbage were dipped in test solution and air-dried. Treated leaves were placed in petri dishes lined with moist filter paper and inoculated with ten 3rd instar larvae. Mortality was recorded 72 hours after treatment. Feeding damages were also recorded using a scale of 0-100%.

[8] = system: Orchid Thrips (Dichromothrips corbetti); experiment: Action on orchid thrips, floral-immersion technique; conditions: adult thrips, 72 hours after treatment, read-out: mortality in comparison with untreated controls
Description: Example B2: Action on Orchid Thrips (Dichromothrips Corbetti)
Dichromothrips corbettiadults used for bioassay were obtained from a colony maintained continuously under laboratory conditions. For testing purposes, the test compound is diluted in a 1:1 mixture of acetone:water (vol:vol), plus Kinetic® HV at a rate of 0.01% v/v.
Thrips potency of each compound was evaluated by using a floral-immersion technique. All petals of individual, intact orchid flowers were dipped into treatment solution and allowed to dry in Petri dishes. Treated petals were placed into individual re-sealable plastic along with about 20 adult thrips. All test arenas were held under continuous light and a temperature of about 28° C. for duration of the assay. After 3 days, the numbers of live thrips were counted on each petal. The percent mortality was recorded 72 hours after treatment.

CC(C)c1ccccc1N1C(=O)CS/C1=N\N=C\c1ccc2c(ccc3c2ncn3-c2ccc(OC(F)(F)F)cc2)n1 [Compound C-4, (2Z)-3-(2-isopropylphenyl)-2-[(E)-[3-[4-(trifluoromethoxy)phenyl]imidazo[4,5-f]quinolin-7-yl]methylenehydrazono]thiazolidin-4-one]
≥ 75%: mortality at 800 ppm [1] | mortality at 500 ppm [2] | mortality at 800 ppm [3] | mortality at 800 ppm [4] | mortality at 500 ppm [5] | mortality at 800 ppm [6] | mortality at 500 ppm [7] | mortality at 500 ppm [8]

Cc1cccc(C)c1/N=C1\SCC(=O)N1/N=C/c1cc2ccc3c(ncn3-c3ccc(OC(F)(F)F)cc3)c2cn1 [Compound C-29, (2Z)-2-(2,6-dimethylphenyl)imino-3-[(E)-[3-[4-(trifluoromethoxy)phenyl]imidazo[4,5-h]isoquinolin-7-yl]methyleneamino]thiazolidin-4-one]
≥ 75%: mortality at 800 ppm [1] | mortality at 500 ppm [2] | mortality at 800 ppm [3] | mortality at 800 ppm [4] | mortality at 500 ppm [5] | mortality at 800 ppm [6] | mortality at 500 ppm [7]

Cc1cccc(C)c1N1CCCS/C1=N/N=C/c1ccc2c(ccc3c2ncn3-c2ccc(OC(F)(F)F)cc2)n1 [Compound C-23, (E)-3-(2,6-dimethylphenyl)-N-[(E)-[3-[4-(trifluoromethoxy)phenyl]imidazo[4,5-f]quinolin-7-yl]methyleneamino]-1,3-thiazinan-2-imine]
≥ 75%: mortality at 800 ppm [1] | mortality at 500 ppm [2] | mortality at 800 ppm [3] | mortality at 800 ppm [4] | mortality at 500 ppm [5] | mortality at 800 ppm [6] | mortality at 500 ppm [7] | mortality at 500 ppm [8]

CC(C)c1ccccc1/N=C1\SCC(=O)N1/N=C/c1cnc2c(ccc3c2ncn3-c2ccc(OC(F)(F)F)cc2)c1 [Compound C-16, (2Z)-2-(2-isopropylphenyl)imino-3-[(E)-[3-[4-(trifluoromethoxy)phenyl]imidazo[4,5-h]quinolin-7-yl]methyleneamino]thiazolidin-4-one]
≥ 75%: mortality at 800 ppm [1] | mortality at 500 ppm [2] | mortality at 800 ppm [3] | mortality at 800 ppm [4] | mortality at 500 ppm [5] | mortality at 800 ppm [6] | mortality at 500 ppm [7] | mortality at 500 ppm [8]

CC(C)c1ccccc1N1C(=O)CS/C1=N\N=C\c1cnc2c(ccc3c2ncn3-c2ccc(OC(F)(F)F)cc2)c1 [Compound C-17, (2Z)-3-(2-isopropylphenyl)-2-[(E)-[3-[4-(trifluoromethoxy)phenyl]imidazo[4,5-h]quinolin-7-yl]methylenehydrazono]thiazolidin-4-one]
≥ 75%: mortality at 800 ppm [1] | mortality at 500 ppm [2] | mortality at 800 ppm [3] | mortality at 800 ppm [4] | mortality at 800 ppm [6] | mortality at 500 ppm [7] | mortality at 500 ppm [8]

Cc1cccc(C)c1N1C(=O)CS/C1=N\N=C\c1ccc2c(ccc3c2ncn3-c2ccc(OC(F)(F)F)cc2)n1 [Compound C-2, (2Z)-3-(2,6-dimethylphenyl)-2-[(E)-[3-[4-(trifluoromethoxy)phenyl]imidazo[4,5-f]quinolin-7-yl]methylenehydrazono]thiazolidin-4-one]
≥ 75%: mortality at 800 ppm [1] | mortality at 800 ppm [3] | mortality at 800 ppm [4] | mortality at 500 ppm [5] | mortality at 800 ppm [6] | mortality at 500 ppm [7] | mortality at 500 ppm [8]

CC(C)c1ccccc1NC(=S)N/N=C/c1ccc2c(ccc3c(-c4ccc(OC(F)(F)F)cc4)n(C)nc32)n1 [Compound C-19, 1-(2-isopropylphenyl)-3-[(E)-[2-methyl-3-[4-(trifluoromethoxy)phenyl]pyrazolo[3,4-f]quinolin-7-yl]methyleneamino]thiourea]
≥ 75%: mortality at 800 ppm [1] | mortality at 500 ppm [2] | mortality at 800 ppm [3] | mortality at 800 ppm [4] | mortality at 500 ppm [5] | mortality at 800 ppm [6]

CC(C)c1ccccc1NC(=S)N/N=C/c1ccc2c(ccc3c2ncn3-c2ccc(OC(F)(F)F)cc2)n1 [Compound C-3, 1-(2-isopropylphenyl)-3-[(E)-[3-[4-(trifluoromethoxy)phenyl]imidazo[4,5-f]quinolin-7-yl]methyleneamino]thiourea]
≥ 75%: mortality at 500 ppm [2] | mortality at 800 ppm [4] | mortality at 500 ppm [5] | mortality at 800 ppm [6] | mortality at 500 ppm [7]

CC(C)c1ccccc1N1C(=O)CS/C1=N\N=C\c1ccc2c(ccc3c(-c4ccc(OC(F)(F)F)cc4)n(C)nc32)n1 [Compound C-20, (2Z)-3-(2-isopropylphenyl)-2-[(E)-[2-methyl-3-[4-(trifluoromethoxy)phenyl]pyrazolo[3,4-f]quinolin-7-yl]methylenehydrazono]thiazolidin-4-one]
≥ 75%: mortality at 800 ppm [1] | mortality at 500 ppm [2] | mortality at 800 ppm [3] | mortality at 800 ppm [4] | mortality at 500 ppm [5] | mortality at 800 ppm [6] | mortality at 500 ppm [7]

From patent US10106558B2, “Azolobenzazine compounds, compositions comprising these compounds and their use for controlling invertebrate pests” (BASF SE, priority 2015, dated 2018)
